From ChEMBL document CHEMBL1250454, “Oral oxytocin antagonists” (J Med Chem, 2010)
Values after ≈ are worked out from the molar mass of the structure shown.

Experiments:
Oxytocin receptor [1] = target: T1, Oxytocin receptor (Homo sapiens, UniProt P30559); test: Displacement of [3H]-oxytocin from human oxytocin receptor expressed in CHO cells; type: cell-based
T1 sequence (P30559 whole entry): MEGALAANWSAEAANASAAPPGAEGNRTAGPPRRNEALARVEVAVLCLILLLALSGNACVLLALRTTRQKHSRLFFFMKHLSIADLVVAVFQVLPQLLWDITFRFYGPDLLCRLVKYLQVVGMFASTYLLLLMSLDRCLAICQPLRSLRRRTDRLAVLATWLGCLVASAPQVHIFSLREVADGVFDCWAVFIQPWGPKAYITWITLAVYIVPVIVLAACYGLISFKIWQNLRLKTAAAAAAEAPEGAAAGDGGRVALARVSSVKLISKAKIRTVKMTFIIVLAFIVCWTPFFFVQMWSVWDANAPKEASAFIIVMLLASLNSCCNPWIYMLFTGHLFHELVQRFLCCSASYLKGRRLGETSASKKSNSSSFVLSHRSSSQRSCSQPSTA

Vasopressin V1a receptor [2] = target: T2, Vasopressin V1a receptor (Homo sapiens, UniProt P37288); test: Displacement of [3H]vasopressin from human vasopressin V1a receptor expressed in CHO cells at 10 uM; type: cell-based
Oxytocin receptor [3] = target: T1, Oxytocin receptor; test: Displacement of [3H]-oxytocin from oxytocin receptor in human uterus tissue; type: tissue-based
Vasopressin V1a receptor [4] = target: Vasopressin V1a receptor (Rattus norvegicus, UniProt P30560); test: Displacement of [3H]vasopressin from vasopressin V1a receptor in rat liver tissue
Vasopressin V2 receptor [5] = target: Vasopressin V2 receptor (Rattus norvegicus, UniProt Q00788); test: Displacement of [3H]vasopressin from vasopressin V2 receptor in rat kidney tissue
Oxytocin receptor [6] = target: T3, Oxytocin receptor (Rattus norvegicus, UniProt P70536); test: Displacement of [3H]-oxytocin from oxytocin receptor in rat uterus tissue; type: tissue-based
T3 sequence (P70536 whole entry): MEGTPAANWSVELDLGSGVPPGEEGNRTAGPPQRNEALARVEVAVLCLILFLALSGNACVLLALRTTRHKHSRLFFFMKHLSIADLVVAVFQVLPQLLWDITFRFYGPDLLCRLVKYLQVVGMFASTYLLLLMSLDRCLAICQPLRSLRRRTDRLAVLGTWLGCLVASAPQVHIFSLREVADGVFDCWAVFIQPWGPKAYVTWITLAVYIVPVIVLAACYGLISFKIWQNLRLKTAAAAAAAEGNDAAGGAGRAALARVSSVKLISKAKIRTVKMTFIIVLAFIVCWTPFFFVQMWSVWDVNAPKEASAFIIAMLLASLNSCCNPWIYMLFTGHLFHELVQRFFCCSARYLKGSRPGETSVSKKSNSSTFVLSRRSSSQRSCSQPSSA

Vasopressin V1a receptor [7] = target: T2, Vasopressin V1a receptor; test: Displacement of [3H]vasopressin from vasopressin V1a receptor in human liver tissue
Target sequence in this assay (P37288 whole entry): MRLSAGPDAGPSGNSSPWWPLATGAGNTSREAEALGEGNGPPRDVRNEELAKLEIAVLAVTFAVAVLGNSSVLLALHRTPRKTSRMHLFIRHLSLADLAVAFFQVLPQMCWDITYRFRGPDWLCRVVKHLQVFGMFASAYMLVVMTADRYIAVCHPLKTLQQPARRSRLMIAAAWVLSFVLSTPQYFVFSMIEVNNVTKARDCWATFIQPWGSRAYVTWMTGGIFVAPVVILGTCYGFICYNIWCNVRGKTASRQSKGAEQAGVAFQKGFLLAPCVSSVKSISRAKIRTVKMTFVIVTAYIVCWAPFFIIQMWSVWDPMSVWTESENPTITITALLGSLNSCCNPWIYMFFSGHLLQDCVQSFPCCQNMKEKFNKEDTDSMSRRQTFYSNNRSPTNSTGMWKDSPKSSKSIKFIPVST

Vasopressin V2 receptor [8] = target: T4, Vasopressin V2 receptor (Homo sapiens, UniProt P30518); test: Displacement of [3H]vasopressin from vasopressin V2 receptor in human kidney tissue
Rattus norvegicus [9] = test: Inhibition of oxytocin-induced uterine contraction in iv dosed rat; type: functional
Rattus norvegicus [10] = test: Inhibition of oxytocin-induced uterine contraction in intraduodenally dosed rat; type: functional
Homo sapiens [11] = species: Homo sapiens; test: Selectivity ratio of Ki for human oxytocin receptor Ki for human vasopressin V1a receptor
Homo sapiens [12] = species: Homo sapiens; test: Selectivity ratio of Ki for human oxytocin receptor Ki for human vasopressin V2 receptor
Vasopressin V1a receptor [13] = target: T2, Vasopressin V1a receptor; test: Displacement of [3H]vasopressin from human vasopressin V1a receptor
Target sequence in this assay (P37288 whole entry): as above

Vasopressin V1b receptor [14] = target: T5, Vasopressin V1b receptor (Homo sapiens, UniProt P47901); test: Displacement of [3H]vasopressin from human vasopressin V1b receptor
T5 sequence (P47901 whole entry): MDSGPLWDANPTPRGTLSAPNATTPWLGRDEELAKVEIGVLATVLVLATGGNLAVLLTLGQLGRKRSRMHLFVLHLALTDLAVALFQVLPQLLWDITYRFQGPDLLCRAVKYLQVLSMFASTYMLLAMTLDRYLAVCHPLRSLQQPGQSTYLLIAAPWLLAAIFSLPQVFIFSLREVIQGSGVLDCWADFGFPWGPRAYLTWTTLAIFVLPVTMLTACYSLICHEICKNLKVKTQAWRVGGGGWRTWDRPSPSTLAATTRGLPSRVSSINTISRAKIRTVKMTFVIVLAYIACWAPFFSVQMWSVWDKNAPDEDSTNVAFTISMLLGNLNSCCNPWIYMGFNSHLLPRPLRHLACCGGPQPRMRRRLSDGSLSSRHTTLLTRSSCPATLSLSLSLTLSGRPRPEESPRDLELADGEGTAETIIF

Vasopressin V2 receptor [15] = target: T4, Vasopressin V2 receptor; test: Displacement of [3H]vasopressin from human vasopressin V2 receptor
Homo sapiens [16] = species: Homo sapiens; test: Selectivity ratio of Ki for human oxytocin receptor Ki for human vasopressin V1b receptor
Vasopressin V2 receptor [17] = target: T4, Vasopressin V2 receptor; test: Displacement of [3H]vasopressin from human vasopressin V2 receptor expressed in CHO cells; type: cell-based
Vasopressin V1b receptor [18] = target: T5, Vasopressin V1b receptor; test: Displacement of [3H]vasopressin from human vasopressin V1b receptor expressed in CHO cells; type: cell-based
[19] = Oral bioavailability in rat; type: ADME, organism-based; conditions: in vivo
[20] = Oral bioavailability in human; type: ADME, organism-based; conditions: in vivo
[21] = Oral bioavailability in dog; type: ADME, organism-based, Canis lupus familiaris; conditions: in vivo
[22] = Oral bioavailability in chimpanzee; type: ADME, organism-based, Pan troglodytes; conditions: in vivo
[23] = Aqueous solubility of the compound at pH 5.2; type: physicochemical; conditions: buffer
Oxytocin receptor [24] = target: T1, Oxytocin receptor; test: Displacement of [3H]-oxytocin from human oxytocin receptor expressed in HEK293-EBNA cells; type: cell-based
Oxytocin receptor [25] = target: T3, Oxytocin receptor; test: Antagonist activity at oxytocin receptor in rat uterine strips assessed as inhibition of oxytocin-induced contraction; type: functional; conditions: read-out: pA2 (converted)
Rattus norvegicus [26] = test: Inhibition of oxytocin-induced uterine contraction in po dosed rat; type: functional
[27] = Oral bioavailability in pregnant rat; type: ADME, organism-based; conditions: female, in vivo
[28] = Half life in pregnant rat; type: ADME, organism-based; conditions: female, in vivo
Homo sapiens [29] = test: Toxicity in human assessed as tolerated dosed; type: organism-based; conditions: in vivo
[30] = Half life in human; type: ADME, organism-based; conditions: in vivo
[31] = Clearance in human; type: ADME, organism-based; conditions: in vivo
[32] = Clearance in dog; type: ADME, organism-based, Canis lupus familiaris; conditions: in vivo
[33] = Solubility of the compound at pH 7.4; type: physicochemical; conditions: buffer
[34] = Clearance in rat; type: ADME, organism-based; conditions: in vivo
[35] = Half life in rat; type: ADME, organism-based; conditions: in vivo
[36] = Aqueous solubility of the compound at pH 5; type: physicochemical
Rattus norvegicus [37] = test: Inhibition of oxytocin-induced uterine contraction in iv dosed non-pregnant anaesthetized rat; type: functional
Rattus norvegicus [38] = test: Inhibition of oxytocin-induced uterine contraction in non-pregnant anaesthetized rat at 30 mg/kg, po; type: functional
Rattus norvegicus [39] = test: Inhibition of oxytocin-induced uterine contraction in long-term pregnant anaesthetized rat at 30 mg/kg, po; type: functional; conditions: read-out: INH

Chain of Vasopressin V1a receptor (Rattus norvegicus, UniProt P30560) (P30560 whole entry): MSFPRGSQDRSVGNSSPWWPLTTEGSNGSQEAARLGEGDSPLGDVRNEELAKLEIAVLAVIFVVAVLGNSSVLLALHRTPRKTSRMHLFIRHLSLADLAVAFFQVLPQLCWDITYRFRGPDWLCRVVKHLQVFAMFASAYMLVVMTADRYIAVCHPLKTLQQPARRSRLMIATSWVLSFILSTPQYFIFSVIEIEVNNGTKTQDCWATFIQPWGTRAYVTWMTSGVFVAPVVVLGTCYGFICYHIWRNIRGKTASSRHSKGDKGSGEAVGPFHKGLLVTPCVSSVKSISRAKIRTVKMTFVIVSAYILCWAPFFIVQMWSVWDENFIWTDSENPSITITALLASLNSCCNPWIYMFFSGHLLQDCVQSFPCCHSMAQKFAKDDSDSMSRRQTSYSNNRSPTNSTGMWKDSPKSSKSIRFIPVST
T4 sequence (P30518 whole entry): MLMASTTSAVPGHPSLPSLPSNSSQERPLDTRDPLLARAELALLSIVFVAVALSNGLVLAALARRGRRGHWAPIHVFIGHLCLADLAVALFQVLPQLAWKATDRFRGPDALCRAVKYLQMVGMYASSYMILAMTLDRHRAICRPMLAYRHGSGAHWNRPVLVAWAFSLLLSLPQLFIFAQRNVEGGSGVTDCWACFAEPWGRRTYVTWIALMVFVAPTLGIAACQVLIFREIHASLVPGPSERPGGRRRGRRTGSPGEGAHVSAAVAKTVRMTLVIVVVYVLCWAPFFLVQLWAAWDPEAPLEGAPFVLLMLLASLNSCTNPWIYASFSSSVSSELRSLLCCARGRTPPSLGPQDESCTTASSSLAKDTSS
Chain of Vasopressin V2 receptor (Rattus norvegicus, UniProt Q00788) (Q00788 whole entry): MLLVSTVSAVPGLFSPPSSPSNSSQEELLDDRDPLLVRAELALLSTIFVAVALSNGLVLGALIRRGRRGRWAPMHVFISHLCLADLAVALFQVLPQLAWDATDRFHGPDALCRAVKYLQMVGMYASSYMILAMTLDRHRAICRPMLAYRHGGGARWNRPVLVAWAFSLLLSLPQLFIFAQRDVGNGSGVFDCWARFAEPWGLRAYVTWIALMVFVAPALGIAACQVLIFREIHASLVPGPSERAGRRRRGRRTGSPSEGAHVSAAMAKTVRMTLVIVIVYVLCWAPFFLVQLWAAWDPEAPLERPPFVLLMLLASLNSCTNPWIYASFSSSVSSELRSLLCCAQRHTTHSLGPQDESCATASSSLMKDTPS

## CO/N=C1\C[C@@H](C(=O)NCC(O)c2ccccc2)N(C(=O)c2ccc(-c3ccccc3)cc2)C1 (stereo partly specified)
Oxytocin receptor [1]
  IC50: 260 nM
Vasopressin V1a receptor [2]
  inhibition: 68%

## Cc1ccc(S(=O)(=O)N2CCC3(C=Cc4ccccc43)CC2)cc1
Oxytocin receptor [3]
  Ki: 1000 nM
Vasopressin V1a receptor [4]
  Ki: 9800 nM
Vasopressin V2 receptor [5]
  Ki: > 40000 nM

## CC1(C)[C@@H]2CC[C@@]1(CS(=O)(=O)N1CCC3(C=Cc4ccccc43)CC1)[C@@](O)(CC(=O)O)C2
Oxytocin receptor [3]
  Ki: 530 nM
Oxytocin receptor [6]
  Ki: 370 nM
Vasopressin V1a receptor [7]
  Ki: 1600 nM
Vasopressin V1a receptor [4]
  Ki: 26000 nM
Vasopressin V2 receptor [8]
  Ki: 5600 nM
Vasopressin V2 receptor [5]
  Ki: 29000 nM
Rattus norvegicus [9]
  AD50: 10 mg/kg
Rattus norvegicus [10]
  AD50: 30 mg/kg
Homo sapiens [11]
  Ratio Ki: 3
Homo sapiens [12]
  Ratio Ki: 11

## CC(C)C[C@@H]1C(=O)N[C@H](C2Cc3ccccc3C2)C(=O)N1[C@@H](C(=O)NC(C)C)c1ccc(F)cc1
Vasopressin V1a receptor [13]
  Ki: > 6310 nM
Vasopressin V1b receptor [14]
  Ki: > 6310 nM
Vasopressin V2 receptor [15]
  Ki: 1260 nM
Homo sapiens [11]
  Ratio Ki: > 1500
Homo sapiens [12]
  Ratio Ki: > 300
Homo sapiens [16]
  Ratio Ki: > 1500

## CCOCc1nnc(-c2ccc(OCC)c(C)c2)n1-c1ccc(OC)nc1
Vasopressin V2 receptor [17]
  Ki: > 10000 nM
Vasopressin V1a receptor [2]
  Ki: 549 nM
Vasopressin V1b receptor [18]
  Ki: > 10000 nM

## Cc1ccccc1N1CCN(S(=O)(=O)C[C@]23CC[C@H](C[C@@H]2NC(=O)[C@@H](N)CCS(C)(=O)=O)C3(C)C)CC1
Oxytocin receptor [3]
  Ki: 13 nM
Oxytocin receptor [6]
  Ki: 3.6 nM
Vasopressin V1a receptor [7]
  Ki: 180 nM
Vasopressin V1a receptor [4]
  Ki: 110 nM
Vasopressin V2 receptor [8]
  Ki: 590 nM
Vasopressin V2 receptor [5]
  Ki: 200 nM
Rattus norvegicus [9]
  AD50: 0.35 mg/kg
Rattus norvegicus [10]
  AD50: 7 mg/kg
[19]
  bioavailability: 35%
[20]
  bioavailability: 20%
Homo sapiens [11]
  Ratio Ki: 14
Homo sapiens [12]
  Ratio Ki: 45
[21]
  bioavailability: 25%
[22]
  bioavailability: 21%
[23]
  solubility: 2.5 mg/kg

## COc1ccc(N(Cc2ccc(-c3ccccc3C)cn2)S(=O)(=O)c2cn(C)c(C)n2)cn1
Oxytocin receptor [3]
  Ki: 9.1 nM
Homo sapiens [11]
  Ratio Ki: 80
Homo sapiens [12]
  Ratio Ki: 15700

## CO/N=C1/C[C@H](c2nc(C)no2)N(C(=O)c2ccc(-c3ccccc3C)cc2)C1
Vasopressin V1a receptor [2]
  Ki: 60 nM
Oxytocin receptor [24]
  Ki: 50 nM

## CO/N=C1/C[C@@H](C(=O)NC[C@@H](O)c2ccccc2)N(C(=O)c2ccc(-c3ccccc3C)cc2)C1
Oxytocin receptor [3]
  Ki: 28 nM
Rattus norvegicus [9]; Rattus norvegicus, iv
  ED50: 3.5 mg/kg
[19]
  bioavailability: 49%
Homo sapiens [11]
  Ratio Ki: 6
Homo sapiens [12]
  Ratio Ki: 350
Oxytocin receptor [1]
  IC50: 28 nM
Vasopressin V2 receptor [17]
  Ki: > 10000 nM
Oxytocin receptor [25]
  Kb: 15.8 nM
Rattus norvegicus [26]
  ED50: 89 mg/kg
[27]
  bioavailability: 49%
[28]
  half-life: 2.8 h

## COCc1nnc(N2CC(Oc3ccc(F)cc3Cl)C2)n1-c1ccc(OC)nc1
Homo sapiens [29]
  Activity: 0.3 mg
[30]
  half-life: 12 h
[31]
  clearance: > 8 mL/min/kg
[32]
  clearance: 8 mL/min/kg
[33]
  solubility: 59 µg/mL (≈ 141 µM)
[20]
  bioavailability: 80%
Homo sapiens [11]
  Ratio Ki: 118
Homo sapiens [12]
  Ratio Ki: 1050
Vasopressin V1b receptor [18]
  Ki: > 10000 nM
[34]
  clearance: 36 mL/min/kg

## COc1ccc(-n2c(C)nnc2-c2cnc(-c3ccc(F)cc3C)cn2)cn1
[35]
  half-life: 1 h
[36]
  solubility: 6 µg/mL (≈ 15.9 µM)
Vasopressin V1b receptor [18]
  Ki: > 10000 nM
[34]
  clearance: 50 mL/min/kg

## CN(C)CCCNC(=O)CCc1ccc(S(=O)(=O)N(CC(=O)N/N=C2\C(=O)Nc3ccccc32)c2ccc(Cl)cc2)cc1
Homo sapiens [11]
  Ratio Ki: 60
Homo sapiens [12]
  Ratio Ki: 580
Rattus norvegicus [37]
  ED50: 1.4 mg/kg
Homo sapiens [16]
  Ratio Ki: 23000
Rattus norvegicus [38]
  inhibition in vivo at 30 mg/kg: 35%
Rattus norvegicus [39]
  inhibition in vivo at 30 mg/kg: 35%
Vasopressin V1b receptor [18]
  Ki: 377 nM
